Laboratory results reported in patent US4146720A, “N-Aminoethyl-substituted-3-nitronaphthalimides” (priority 1977, dated 1979).

Assays:
[1] = test system: mouse; experiment: Comparative toxicity study (LD0, LD50) and therapeutic index; conditions: for LD0 (zero lethal dose or maximal permissible dose): LD0 expressed in mg/mouse; for LD50: LD50 expressed in mg/mouse
Text: (§1) In the study of the cytostatic action, 6-mercaptopurine was taken as the comparative anti-neoplastic drug.

[2] = test system: He-La cells and KB cells; experiment: Cytostatic action on He-La cells and on KB cells, 6-mercaptopurine as comparative drug (Table 1); assay type: cell-based, human; design: unit not given beside the values; conditions: calculated using 6-mercaptopurine as the comparative drug (6-mercaptopurine = 1)
Text: as §1

[3] = test system: Swiss I.C.R. albino mice; experiment: Raticide/muricide action, drugs mixed with mice food for 7 days, Warfarin as comparative substance; assay type: in vivo, mouse (Swiss I.C.R. albino); conditions: for Raticide and muricide action compared with Warfarin / Toxicity compared with Warfarin: in words; for Dose to be taken in seven days: mixed with usual mice food at 1%, 0.5% and 0.1%, 7 days, oral
Experimental: The four drugs were given to Swiss I.C.R. albino mice during 7 days. The administration was done by mixing the drugs with the usual mice food at concentrations of 1%, 0.5% and 0.1%. Two cribs were put in each cage: one with the usual mice food and the other containing food to which our drugs were added at the above mentioned concentrations. The food of both cribs was weighed daily in order to see if the animals could distinguish it. Warfarin (3-(α-acetonylbenzyl)-4-hydroxycoumarin) was used as the comparative substance.

[4] = test system: HeLa cells; experiment: Cytotoxic activity on HeLa cells, comparison with corresponding 4-nitronaphthalimides; assay type: cell-based, human; conditions: relative; ID50 of 6-mercaptopurine is assigned the value "1"; 37° C., 72 hours; Lowry protein
Experimental: A series of tests has been carried out comparing the compounds of our invention with the corresponding 4-nitronaphthalimides, with respect to their cytotoxic activity on HeLa cells. The cytotoxic activity test was carried out in accordance with the procedure set forth in "R. I. Heral. Cancer Chemotherapy Report part III, Vol. III, No. 2".
HeLa cells are human cancer cells commonly used for investigating the cytotoxic activity of compounds. These HeLa cells are cultured by the single layer tissue culture technique on glass slides in the laboratories of the Spanish company, Laboratories Made, S.A., of Madrid, Spain, the assignee of this application.
In the tests, there was used an initial culture containing approximately 125000 HeLa cells per milliliter. The initial culture was dispersed with trypsin and was stirred to maintain the cells in suspension therein. Portions of equal volume of the suspension were placed in separate test tubes and to the test tubes were added the various compounds set forth below in various concentrations. There was employed as a standard for comparison, the compound 6-mercaptopurine, a known anti-neoplastic agent whose cytotoxic activity on HeLa cells is well known. As a control, there were also employed test tubes containing the suspension and to which no compound was added.
The contents of the test tubes were cultured at 37° C. for 72 hours. Then the contents of the various test tubes were examined by optical microscope to determine the approximate proportion of cells whose cellular growth was inhibited. Then, the protein content of each tube was determined by the Lowry method, as modified by Oyama and Eagle (Proc. Soc. Exptl. Biol. Med. 91, 305 (1956), and these values are compared with the corresponding values obtained in the control test tubes wherein no compound was added. Comparison of these measured protein values provides a further determination of the inhibition of cell growth caused by the test compounds. With the data obtained from the test tubes containing the same compound in various concentrations, a graph was prepared of concentration of compound versus inhibition of growth of HeLa cells. From this, there can be obtained the so-called ID50 value, that is, the dose of the compound that inhibits HeLa cellular growth by 50%. This is then compared with the results for the comparison compound 6-mercaptopurine. For purposes of comparison, the ID50 value of 6-mercaptopurine is assigned the value "1".

[5] = Comparative toxicity study (LD0, LD50) and therapeutic index; conditions: mouse, in vivo
Text: as §1

Structure (SMILES) | LD0 (zero lethal dose or maximal permissible dose) [1] | LD50 [1] | ID50 (50% inhibitory dose) [2] | Raticide and muricide action compared with Warfarin [3] | Toxicity compared with Warfarin [3] | Dose to be taken in seven days [3] | ID50 (dose that inhibits HeLa cellular growth by 50%) [4] | selectivity ratio [5]
CCN(CC)CCN1C(=O)c2cccc3cc([N+](=O)[O-])cc(c23)C1=O [Compound 2, N-(2-diethylaminoethyl)-3-nitronaphthalimide] | 0.15 mg/mouse | 2 mg/mouse | 3 | great superiority over Warfarin as raticide and muricide agents | more toxic | 13 mg/kg | 3 | –
O=C1c2cccc3cc([N+](=O)[O-])cc(c23)C(=O)N1CCN1CCCCC1 [Compound 1, N-[2-(N-piperidino)ethyl]-3-nitronaphthalimide] | 0.5 mg/mouse | 2 mg/mouse | 2 | – | – | 80 mg/kg | 2 | –
CC(=O)CC(c1ccccc1)c1c(O)c2ccccc2oc1=O (stereo not drawn) [Warfarin, 3-(α-acetonylbenzyl)-4-hydroxycoumarin, reference compound] | – | – | – | – | – | 35 mg/kg | – | –
Sc1ncnc2nc[nH]c12 [6-mercaptopurine, reference compound] | 1 mg/mouse | 5 mg/mouse | – | – | – | – | – | 5
O=C1c2cccc3c([N+](=O)[O-])ccc(c23)C(=O)N1CCN1CCCC1 [N-[2-(N-pyrrolidino)ethyl]-4-nitronaphthalimide, reference compound] | – | – | – | – | – | – | 4 | –
O=C1c2cccc3c([N+](=O)[O-])ccc(c23)C(=O)N1CCN1CCCCC1 [N-[2-(N-piperidino)ethyl]-4-nitronaphthalimide, reference compound] | – | – | – | – | – | – | 5 | –
O=C1c2cccc3cc([N+](=O)[O-])cc(c23)C(=O)N1CCN1CCCC1 [Compound 4, N-[2-(N-pyrrolidino)ethyl]-3-nitronaphthalimide] | 0.2 mg/mouse | 0.38 mg/mouse | 0.3 | great superiority over Warfarin as raticide and muricide agents | more toxic | 6.6 mg/kg | 0.30 | 1.26
CN(C)CCN1C(=O)c2cccc3c([N+](=O)[O-])ccc(c23)C1=O [N-[2-dimethylaminoethyl]-4-nitronaphthalimide, reference compound] | – | – | – | – | – | – | 3 | –
CN(C)CCN1C(=O)c2cccc3cc([N+](=O)[O-])cc(c23)C1=O [Compound 3, N-(2-dimethylaminoethyl)-3-nitronaphthalimide] | 0.2 mg/mouse | 0.30 mg/mouse | 0.15 | great superiority over Warfarin as raticide and muricide agents | more toxic | 6.6 mg/kg | 0.15 | 2
CCN(CC)CCN1C(=O)c2cccc3c([N+](=O)[O-])ccc(c23)C1=O [N-[2-diethylaminoethyl]-4-nitronaphthalimide, reference compound] | – | – | – | – | – | – | 5.5 | –
